In patent publication US12275725B2, “Inhibitors of the notch transcriptional activation complex and methods for use of the same” (University of Miami, priority 2019, dated 2025):
In brackets after ≈: the same amount, converted by molar mass. Where two headings read alike, the source gives them in different places.

Legend:
OE 33 cell line = experiment: Cell viability, MTT, OE33 cell line; format: cell-based, human; conditions: for IC50: Homo sapiens, OE33, 72 h treatment
Source text: OE33 cells, human esophageal adenocarcinoma cell lines, were obtained from the European Collection of Cell Culture. SUM-149 and SUM-159, breast cancer cell lines, were obtained from Dr. Joyce Slingerland at the University of Miami School of Medicine. The following cell lines were obtained directly from the ATCC: 786-0, a human renal cell adenocarcinoma cell line; HT-1080, a human fibrosarcoma cell line; MCF-7, a mammary gland adenocarcinoma; T47D, a human mammary ductal carcinoma cell line; and H-23 a non-small cell lung adenocarcinoma cell line. All cell lines were propagated in growth media as specified.

[1] = biological target: T1, Notch transcriptional activation complex (NTC) (Homo sapiens, UniProt P46531+Q06330); experiment: Notch complex assembly assay (NTC AlphaScreen assay); format: binding
T1 construct: made in house; host or cells: SF21 insect cells (baculovirus)
T1 sequence (P46531 1754-2555 limits assumed): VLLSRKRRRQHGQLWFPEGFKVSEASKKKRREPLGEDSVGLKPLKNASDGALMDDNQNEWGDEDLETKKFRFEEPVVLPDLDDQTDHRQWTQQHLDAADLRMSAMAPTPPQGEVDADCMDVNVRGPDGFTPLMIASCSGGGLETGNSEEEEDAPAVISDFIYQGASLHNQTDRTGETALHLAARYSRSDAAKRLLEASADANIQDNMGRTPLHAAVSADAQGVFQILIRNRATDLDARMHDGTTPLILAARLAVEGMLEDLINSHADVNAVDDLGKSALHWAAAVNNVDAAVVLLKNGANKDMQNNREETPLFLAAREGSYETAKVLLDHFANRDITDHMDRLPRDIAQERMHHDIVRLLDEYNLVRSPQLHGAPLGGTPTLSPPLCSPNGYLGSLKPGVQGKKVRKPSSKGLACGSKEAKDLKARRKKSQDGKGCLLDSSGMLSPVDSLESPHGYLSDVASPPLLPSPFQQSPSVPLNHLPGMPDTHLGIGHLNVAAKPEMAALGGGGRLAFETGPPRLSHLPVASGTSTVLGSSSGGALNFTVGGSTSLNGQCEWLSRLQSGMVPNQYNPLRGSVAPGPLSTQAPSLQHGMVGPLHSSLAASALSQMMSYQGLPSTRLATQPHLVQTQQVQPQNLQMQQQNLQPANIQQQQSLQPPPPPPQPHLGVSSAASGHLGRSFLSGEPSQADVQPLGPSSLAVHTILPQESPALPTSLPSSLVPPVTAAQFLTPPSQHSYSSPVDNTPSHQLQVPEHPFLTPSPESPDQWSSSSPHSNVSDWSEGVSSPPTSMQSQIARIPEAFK
T1 sequence (Q06330 whole entry): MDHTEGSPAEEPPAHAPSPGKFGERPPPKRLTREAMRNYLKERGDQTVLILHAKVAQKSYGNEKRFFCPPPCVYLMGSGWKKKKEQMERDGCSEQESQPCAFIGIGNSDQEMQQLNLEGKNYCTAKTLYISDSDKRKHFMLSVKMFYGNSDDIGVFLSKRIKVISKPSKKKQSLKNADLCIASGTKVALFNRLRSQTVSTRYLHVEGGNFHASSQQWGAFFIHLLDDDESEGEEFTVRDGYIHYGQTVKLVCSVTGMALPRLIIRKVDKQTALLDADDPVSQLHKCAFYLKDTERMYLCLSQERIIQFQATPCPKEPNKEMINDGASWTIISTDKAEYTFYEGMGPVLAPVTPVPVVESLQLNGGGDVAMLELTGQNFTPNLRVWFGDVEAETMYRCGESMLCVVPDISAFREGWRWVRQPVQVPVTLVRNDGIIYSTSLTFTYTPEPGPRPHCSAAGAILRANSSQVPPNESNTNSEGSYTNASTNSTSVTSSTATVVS
Method: Notch Complex Assembly Assay
All recombinant proteins were expressed using baculovirus expression vectors in SF21 cells and purified. Unless otherwise stated, all assays contained 125 fmol of double stranded oligonucleotide, CSL, Notch1 and MAML1 proteins. Reactions were carried out in Tris-buffered saline with 0.1% Tween (“TBS-T”) buffer containing 0.2% bovine serum albumin (“BSA”) and 100 μg/mL salmon sperm DNA. Briefly, the Notch complex was assembled on a biotinylated double stranded (“DS”) oligonucleotide harboring one CSL binding site (5′-[…]-3′). Complex assembly was quantitated using ALPHASCREEN technology (Perkin Elmer). Proteins in the complexes were detected using specific antibodies to either MAML1 (Cell signaling, D3K7B), Notch1 (Abcam, 52627) or CSL (anti-His, Abcam 18184). Streptavidin conjugated […] beads (Perkin Elmer, 6760002) were used to bind the DS oligonucleotide, and Protein-A conjugated […] beads (Perkin Elmer, 6760137) were used to detect antibody-coated proteins. For screening compounds, Notch transcriptional activation complex (“NTC”) components were added to wells that already contained the inhibitor to be assayed and allowed to incubate for 30 minutes. The ALPHASCREEN plate (Perkin Elmer, 6008350) was then read on an Envision Plate reader (Perkin Elmer) as specified by the manufacturer.

[2] = Pharmacokinetic study in mouse plasma; format: in vivo; conditions: for Cmax: read-out: *C0/Cmax
Method: Pharmacokinetic studies were performed as previously described (Astudillo et al. (2016) Cancer Res). The following treatments were administered: NADi-260 via intraperitoneal (i.p.) route at 100 mg/kg, NADI-260 via intravenous route (i.v.) at 2 mg/kg, NADi-351 via i.p. at 10 mg/kg, NADi-351 via […] at 10 mg/kg and NADi-351 via oral route (PO) at 50 mg/kg. Blood samples were collected from each treatment group and their respective control grounds, plasma was separated from blood immediately by centrifugation at 4000 rpm for 10 min at 4° C. and stored below −70° C. until bioanalysis. All samples were processed for analysis by protein precipitation using acetonitrile and analyzed by fit for purpose LC-MS/MS method. Pharmacokinetic parameters were calculated using the non-compartmental analysis module of Phoenix WinNonlin (Version 6.3). Histological Analysis of Mouse Intestine Tissue

[3] = GSH ethyl ester conjugation / parent remaining in human liver microsomes; format: in vitro ADME; conditions: for Percentage (%) Parent Remaining in HLM: reacted with GSH
[4] = Metabolism to acid form in mouse hepatocytes; format: in vitro ADME; conditions: to SSTN-258
[5] = Metabolism to acid form in liver microsomes; format: in vitro ADME; conditions: to SSTN-258
[6] = Aqueous solubility in SGF, FaSSIF and PBS
[7] = ip, NADi-260 i.p. 100 mg/kg, mouse plasma
[8] = iv, NADi-260 i.v. 2 mg/kg, mouse plasma, back extrapolated, initial three time points only
[9] = iv, NADi-260 i.v. 2 mg/kg, mouse plasma, initial three time points only
[10] = Table C, NTC AlphaScreen assay, read-out: *IC50
[11] = Table B, read-out: IC50 (μM) NTC
[12] = Table E, NTC AlphaScreen assay, read-out: *IC50
[13] = pH 1.2, simulated gastric fluid

For `CC/C(=C(/CC)c1ccc(O)cc1)c1ccc(O)cc1` [DES, diethylstilbestrol, reference compound], the solubility (physchem; pH 7.4, aqueous buffer) was < 5 µM.

In the case of `COc1cc(/C=C2\SC(=S)N(CC(=O)N(C)C)C2=O)cc(F)c1OCC(=O)O` [SSTN-258], the “Cell viability (MTT, μM, 72 h treatment OE 33 cell line)” value (OE 33 cell line) is reported as “No effect”, the “inhibition of NTC assembly” value ([1]; FIG. 1B) is reported as “did not inhibit” and the “IC50 (μM) NTC” value ([1]; Table B) is reported as “Inactive”.

With `COc1cc(/C=C2\SC(=S)N(CC(=O)N(C)C)C2=O)cc(F)c1OCc1ncco1` [NADi-248] the “*IC50 (μM)” value ([1]; Table C, NTC AlphaScreen assay) was “Inactive”.

In the case of `COc1cc(/C=C2\SC(=S)N(CC(=O)N(C)C)C2=O)cc(F)c1OCc1ncc(C)o1` [NADi-249], the “*IC50 (μM)” value ([1]; Table C, NTC AlphaScreen assay) is reported as “Inactive”.

In the case of `CCc1nnc(COc2c(F)cc(/C=C3\SC(=S)N(CC(=O)N(C)C)C3=O)cc2OC)o1` [NADi-256], the “*IC50 (μM)” value ([1]; Table C, NTC AlphaScreen assay) is reported as “Inactive”.

Compound `COc1cc(CC2SC(=S)N(CC(=O)N(C)C)C2=O)cc(F)c1OCc1nnc[nH]1` (centres unmarked) [PM7] has an AUC(0-inf) [2, 7] of 19100 ng·h/mL, an AUC(0-t) [2, 7] of 18800 ng·h/mL and a Tmax [2, 7] of 15 min. It also gave a Cmax [2, 7] of 8520 ng/mL, a Cmax [2, 8] of 3480 ng/mL and an AUC(0-inf) [2, 9] of 310 ng·h/mL. The AUC(0-t) [2, 9] was 308 ng·h/mL.

In the case of `CCc1noc(COc2c(F)cc(/C=C3\SC(=S)N(CC(=O)N(C)C)C3=O)cc2OC)n1` [NADi-259], the “*IC50 (μM)” value ([1]; Table C, NTC AlphaScreen assay) is reported as “Inactive”.

In the case of `COc1cc(/C=C2\SC(=S)N(CC(=O)N(C)C)C2=O)cc(F)c1OCc1nnc(C)o1` [NADi-255], the “*IC50 (μM)” value ([1]; Table C, NTC AlphaScreen assay) is reported as “Inactive”.

Work on `COc1cc(/C=C2\SC(=S)N(CC(=O)N(C)C)C2=O)cc(F)c1OCc1nnc(C)[nH]1` [NADi-261] yielded an IC50 [1, 10] of 0.62 µM.

With `COc1cc(/C=C2\SC(=S)N(CC(=O)N(C)C)C2=O)cc(F)c1O` [PM6] the “plasma level of metabolite” value ([2]; after NADi-260 i.v. 2 mg/kg, mouse plasma) was “BQL”, the AUC(0-t) [2, 7] was 21 ng·h/mL and the Tmax [2, 7] was 15 min. For the same compound, the Cmax [2, 7] was 41 ng/mL.

In the case of `CCOC(=O)COc1ccc(F)cc1/C=C1\SC(=S)N(CC(=O)N(C)C)C1=O` [SSTN-251], the IC50 (OE 33 cell line) is reported as 12.8 µM and the IC50 [1, 11] is reported as 5.1 µM.

In the case of `COc1cc(/C=C2\SC(=S)N(CC(=O)N(C)C)C2=O)cc(F)c1OCc1nc[nH]n1` [NADi-260, (Z)-2-(5-(4-((1H-1,2,4-triazol-3-yl)methoxy)-3-fluoro-5-methoxybenzylidene)-4-oxo-2-thioxothiazolidin-3-yl)-N,N-dimethylacetamide], the “Percentage (%) Parent Remaining in HLM” value ([3]; incubation time 0 min) is reported as 100%, the “Percentage (%) Parent Remaining in HLM” value ([3]; incubation time 60 min) is reported as 46% and the “GSH ethyl ester conjugation in HLM” value ([3]; within 60 minutes of incubation) is reported as “showed GSH ethyl ester conjugation”. The IC50 [1, 10] was 0.02 µM, the IC50 [1, 12] was 0.02 µM and the AUC(0-inf) [2, 7] was 5420 ng·h/mL. It also gave an AUC(0-t) [2, 7] of 5320 ng·h/mL, a Tmax [2, 7] of 4.8 min and a Cmax [2, 7] of 5700 ng/mL. It also gave a Cmax [2, 8] of 837 ng/mL, a clearance ([2]; iv, NADi-260 i.v. 2 mg/kg, mouse plasma, cell says NR, value in footnote) of 429 mL/min/kg and an AUC(0-inf) [2, 9] of 78 ng·h/mL. The AUC(0-t) [2, 9] was 77 ng·h/mL, the half-life [2, 9] was 4.8 min and the Vd ([2]; iv, NADi-260 i.v. 2 mg/kg, mouse plasma, read-out: Vss) was 1.79 L/kg.

In the case of `CCOC(=O)COc1c(F)cc(/C=C2\SC(=S)N(CC(=O)N(C)C)C2=O)cc1OC` [SSTN-253], the “time to metabolize to acid form” value [4] is reported as ≤ 15 min, the IC50 (OE 33 cell line) is reported as 9.3 µM and the “time to metabolize to acid form” value [5] is reported as ≤ 15 min. The IC50 [1, 11] was 0.058 µM, the IC50 [1, 10] was 0.06 µM and the IC50 [1, 12] was 0.06 µM. The “metabolism in mouse plasma” value ([2]; pharmacokinetic study of SSTN-253, FIG. 1C) was “metabolizes to its acid form (SSTN-258)”.

With `COc1cc(/C=C2\SC(=S)N(CC(=O)N(C)C)C2=O)cc(F)c1OCc1nc(C)no1` [NADi-258] the “*IC50 (μM)” value ([1]; Table C, NTC AlphaScreen assay) was “Inactive”.

In the case of `COc1cc(/C=C2\SC(=S)N(CC(=O)N(C)C)C2=O)ccc1OCC(=O)O` [SSTN-254], the IC50 (OE 33 cell line) is reported as > 25 µM and the IC50 [1, 11] is reported as 4.4 µM.

Work on `O=C(O)CCCc1ccc(N(CCCl)CCCl)cc1` [Chlorambucil, chlorambucil] yielded a solubility [6, 13] of 70.4 ± 2.6 µM (≈ 21.4 µg/mL) and a solubility ([6]; pH 6.5, fassif) of 68.9 ± 1.9 µM (≈ 21 µg/mL).

For `COc1ccc2[nH]c([S+]([O-])Cc3ncc(C)c(OC)c3C)nc2c1` (centres unmarked) [Omeprazole, omeprazole, reference compound], the solubility (physchem; [13]) was < 5 µM and the solubility (physchem; pH 6.5, fassif) was 174 ± 5.4 µM (≈ 60 µg/mL).

With `COc1cc(/C=C2\SC(=S)N(CC(=O)N(C)C)C2=O)cc(F)c1OCc1nc(C)c(C)o1` [NADi-251] the “*IC50 (μM)” value ([1]; Table C, NTC AlphaScreen assay) was “Inactive”.

In the case of `CCc1coc(COc2c(F)cc(/C=C3\SC(=S)N(CC(=O)N(C)C)C3=O)cc2OC)n1` [NADi-253], the IC50 [1, 10] is reported as 0.3 µM.

`CCc1nnc(COc2c(F)cc(/C=C3\SC(=S)N(CC(=O)N(C)C)C3=O)cc2OC)[nH]1` [NADi-262] showed an IC50 [1, 10] of 0.08 µM.

In the case of `CCN(CC)C(=O)COc1c(F)cc(/C=C2\SC(=S)N(CC(=O)N(C)C)C2=O)cc1OC` [NADi-244], the IC50 [1, 10] is reported as 2.9 µM.
